# From patent US6673376B1, “Method of preparing a solution, in particular a dialysis or infusion solution” (Fresenius Medical Care Deutschland GmbH, priority 1998, dated 2004)
# “And” between values parts separate entries of the source, which are not always exact repeats. Equal values may be shown once. Read-outs that look alike come from different tables or passages of the source.
# Columns and labels:
# [1] = for pH of finished solution: 1st-3rd test
# From the text: This concentrate was then mixed with a 1 molar sodium bi-carbonate solution and diluted with the stated amount of water.
# [2] = Dissolving rate (time until solution is clear) of succinic acid and succinic acid-NaHCO3 adduct; assay type: physicochemical; settings: for Time until solution is clear: three runs
# Protocol: This solution is stirred and heated briefly until all the solids have dissolved. Then the solution is dried to constant weight (for approximately 48 hours) at approximately 105° C. in a drying oven. The product, which forms amorphous crystals, is homogenized in a mortar.
# [3] = 12.98 g/L, 0.11 mol/l, concentrate 0.22 meq/L
# [4] = 19.47 g/L, 0.165 mol/l, concentrate 0.33 meq/L
# [5] = 25.96 g/L, 0.22 mol/L, concentrate 0.44 meq/L
# [6] = 38.94 g/L, 0.33 mol/L, concentrate 0.66 meq/L
# [7] = 58.11 g/L, 0.495 mol/L, concentrate 0.99 meq/L
structure (smiles),measurement,setting,value
O=C(O)CCC(=O)O [succinic acid],pH of finished solution,"[1]; 35 mL 1 molar NaHCO3, 951 mL water, 14 mL 0.15 molar succinic acid",7.08 and 7.09
same,pH of finished solution,"[1]; 35 mL 1 molar NaHCO3, 953 mL water, 12 mL 0.15 molar succinic acid",7.16 and 7.17
same,pH of finished solution,"[1]; 35 mL 1 molar NaHCO3, 955 mL water, 10 mL 0.15 molar succinic acid",7.26 and 7.27
same,pH of finished solution,"[1]; 35 mL 1 molar NaHCO3, 957 mL water, 8 mL 0.15 molar succinic acid",7.42 and 7.39 and 7.41
same,pH of finished solution,"[1]; 40 mL 1 molar NaHCO3, 946 mL water, 14 mL 0.15 molar succinic acid",7.14 and 7.16 and 7.19
same,pH of finished solution,"[1]; 40 mL 1 molar NaHCO3, 948 mL water, 12 mL 0.15 molar succinic acid",7.24 and 7.25
same,pH of finished solution,"[1]; 40 mL 1 molar NaHCO3, 950 mL water, 10 mL 0.15 molar succinic acid",7.34 and 7.35 and 7.32
same,pH of finished solution,"[1]; 40 mL 1 molar NaHCO3, 952 mL water, 8 mL 0.15 molar succinic acid",7.46 and 7.47 and 7.48
same,concentration sufficient to adjust a physiological pH,"[1]; in terms of the finished ready-to-use solution, relatively high sodium bicarbonate concentration",1.5 mmol/L
same,"Time until solution is clear, Average",[2]; [3],210
same,Time until solution is clear,[2]; [3],200 and 210 and 220
same,"Time until solution is clear, Average",[2]; [4],250
same,Time until solution is clear,[2]; [4],230 and 250 and 270
same,"Time until solution is clear, Average",[2]; [5],358
same,Time until solution is clear,[2]; [5],400 and 375 and 300
same,"Time until solution is clear, Average",[2]; [6],460
same,Time until solution is clear,[2]; [6],510 and 420 and 450
same,"Time until solution is clear, Average",[2]; [7],>900
same,Time until solution is clear,[2]; [7],900 and >1080 and 960
same,dissolution rate,"[2]; in water, in words",very low
